# “And” between values parts separate entries of the source, which are not always exact repeats. Identical values can stand only once.
# Tested on: BDF1 mice, Adenocarcinoma 755 s.c., tumor weight T/C
# Assay: NCI In Vivo Anticancer Drug Screen. Data for tumor model Adenocarcinoma 755 (subcutaneous) in B6D2F1 (BDF1) mice
# Details: endpoint: mean tumor weight, higher = larger tumour
# How it was run: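 Values express treated (T) relative to vehicle-dosed control (C) animals, based on survival or tumour size measured after compound treatment of mice bearing a transplanted tumour.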
# [1] = dose: 60.0 mg/kg/injection, schedule: Q01DX011 (ip), vehicle: carboxymethylcellulose (CMC)
smiles,measurement,setting,value
CC1C[C@@H]2[C@H]([C@@H](O)C[C@@]3(C)[C@H]2CC[C@]3(O)C(=O)CF)[C@@]2(C)CCC(=O)C=C12 (some centres undefined),T/C,"dose: 1.2 mg/kg/injection, schedule: Q01DX011 (sc), vehicle: steriod suspending solution",108 % of control
same,T/C,"dose: 2.5 mg/kg/injection, schedule: Q01DX011 (sc), vehicle: steriod suspending solution",92 % of control
same,T/C,"dose: 8.0 mg/kg/injection, schedule: Q01DX011 (sc), vehicle: steriod suspending solution",82 % of control
same,T/C,"dose: 10.0 mg/kg/injection, schedule: Q01DX011 (sc), vehicle: steriod suspending solution",35 % of control
same,T/C,"dose: 16.0 mg/kg/injection, schedule: Q01DX011 (sc), vehicle: steriod suspending solution",75 % of control
same,T/C,"dose: 20.0 mg/kg/injection, schedule: Q01DX011 (sc), vehicle: steriod suspending solution",30 % of control
same,T/C,"dose: 32.0 mg/kg/injection, schedule: Q01DX011 (sc), vehicle: steriod suspending solution",55 % of control
same,T/C,"dose: 40.0 mg/kg/injection, schedule: Q01DX011 (sc), vehicle: steriod suspending solution",13 % of control
same,T/C,"dose: 170.0 mg/kg/injection, schedule: Q01DX011 (sc), vehicle: steriod suspending solution",5 % of control and 10 % of control
same,T/C,"dose: 340.0 mg/kg/injection, schedule: Q01DX011 (sc), vehicle: steriod suspending solution",9 % of control and 13 % of control
Nc1nc(=S)cc(Nc2ccccc2Cl)[nH]1,T/C,"dose: 31.0 mg/kg/injection, schedule: Q01DX011 (ip), vehicle: methylcellulose (MC)",101 % of control
same,T/C,"dose: 62.0 mg/kg/injection, schedule: Q01DX011 (ip), vehicle: methylcellulose (MC)",156 % of control
same,T/C,"dose: 125.0 mg/kg/injection, schedule: Q01DX011 (ip), vehicle: methylcellulose (MC)",93 % of control
same,T/C,"dose: 250.0 mg/kg/injection, schedule: Q01DX011 (ip), vehicle: methylcellulose (MC)",122 % of control
Nc1nc2nc(/N=N/SCCO)[nH]c2c(=O)[nH]1,T/C,"dose: 25.0 mg/kg/injection, schedule: Q01DX011 (ip), vehicle: methylcellulose (MC)",65 % of control
same,T/C,"dose: 50.0 mg/kg/injection, schedule: Q01DX011 (ip), vehicle: methylcellulose (MC)",39 % of control
Nc1nc2ncc(CNc3ccc(C(=O)NC(CCC(=O)O)C(=O)O)cc3)nc2c(=O)[nH]1 (centres undefined),T/C,"dose: 6.95 mg/kg/injection, schedule: Q01DX011 (ip), vehicle: carboxymethylcellulose (CMC)",78 % of control
same,T/C,"dose: 13.9 mg/kg/injection, schedule: Q01DX011 (ip), vehicle: carboxymethylcellulose (CMC)",77 % of control
same,T/C,"dose: 17.38 mg/kg/injection, schedule: Q01DX011 (ip), vehicle: carboxymethylcellulose (CMC)",221 % of control and 79 % of control
same,T/C,"dose: 22.24 mg/kg/injection, schedule: Q01DX011 (ip), vehicle: carboxymethylcellulose (CMC)",63 % of control
same,T/C,"dose: 27.8 mg/kg/injection, schedule: Q01DX011 (ip), vehicle: carboxymethylcellulose (CMC)",52 % of control and 60 % of control and 75 % of control
same,T/C,"dose: 34.75 mg/kg/injection, schedule: Q01DX011 (ip), vehicle: carboxymethylcellulose (CMC)",65 % of control
same,T/C,"dose: 40.0 mg/kg/injection, schedule: Q01DX011 (ip), vehicle: carboxymethylcellulose (CMC)",70 % of control
same,T/C,"dose: 50.0 mg/kg/injection, schedule: Q01DX011 (ip), vehicle: carboxymethylcellulose (CMC)",50 % of control
same,T/C,"dose: 55.6 mg/kg/injection, schedule: Q01DX011 (ip), vehicle: carboxymethylcellulose (CMC)",33 % of control and 55 % of control
same,T/C,[1],27 % of control
same,T/C,"dose: 65.0 mg/kg/injection, schedule: Q01DX011 (ip), vehicle: carboxymethylcellulose (CMC)",68 % of control
O=C1C(=O)C(Cl)=C(Cl)C(Cl)=C1Cl,T/C,"dose: 7.5 mg/kg/injection, schedule: Q01DX011 (ip), vehicle: carboxymethylcellulose (CMC)",78 % of control
same,T/C,"dose: 15.0 mg/kg/injection, schedule: Q01DX011 (ip), vehicle: carboxymethylcellulose (CMC)",90 % of control
same,T/C,[1],97 % of control
O=C1Nc2ccccc2SC1c1ccccc1Cl (centres undefined),T/C,"dose: 75.0 mg/kg/injection, schedule: Q01DX011 (ip), vehicle: methylcellulose (MC)",94 % of control and 78 % of control
same,T/C,"dose: 150.0 mg/kg/injection, schedule: Q01DX011 (ip), vehicle: methylcellulose (MC)",54 % of control and 60 % of control
Cc1ccc(C(=O)OCC2OC(n3cnc4c(=S)nc(N)[nH]c43)C(OC(=O)c3ccc(C)cc3)C2OC(=O)c2ccc(C)cc2)cc1 (centres undefined),T/C,"dose: 100.0 mg/kg/injection, schedule: Q01DX011 (ip), vehicle: carboxymethylcellulose (CMC)",81 % of control
same,T/C,"dose: 200.0 mg/kg/injection, schedule: Q01DX011 (ip), vehicle: carboxymethylcellulose (CMC)",4 % of control and 12 % of control
CCCCCn1cnc2c(=S)nc(N)[nH]c21,T/C,"dose: 3.1 mg/kg/injection, schedule: Q01DX011 (ip), vehicle: carboxymethylcellulose (CMC)",112 % of control
same,T/C,"dose: 6.2 mg/kg/injection, schedule: Q01DX011 (ip), vehicle: carboxymethylcellulose (CMC)",76 % of control
same,T/C,"dose: 12.5 mg/kg/injection, schedule: Q01DX011 (ip), vehicle: carboxymethylcellulose (CMC)",28 % of control
same,T/C,"dose: 25.0 mg/kg/injection, schedule: Q01DX011 (ip), vehicle: carboxymethylcellulose (CMC)",10 % of control
same,T/C,"dose: 75.0 mg/kg/injection, schedule: Q01DX011 (ip), vehicle: carboxymethylcellulose (CMC)",2 % of control
